# Measured values taken from ChEMBL document CHEMBL4765482, “Novel Sigma 1 Receptor Antagonists as Potential Therapeutics for Pain Management” (J Med Chem, 2021).
# Calls of active or inactive are those of the source.
# Tests used:
# Rattus norvegicus [1] = test: Antinociceptive activity in formalin-induced Sprague-Dawley rat model of nociceptive pain assessed as decrease in time spent on licking during late phase at 100 mg/kg, ip administered 30 mins before formalin stimulation and measured at 5 mins interval for 10 to 35 mins; assay type: functional, organism-based
# [2] = Toxicity in Sprague-Dawley rat assessed as effect on motor coordination at 100 mg/kg, ip measured at 60 to 120 mins post treatment by rotarod test; assay type: organism-based; settings: in vivo, time 60-120 min
# Rattus norvegicus [3] = test: Analgesic activity in Sprague-Dawley rat model of paclitaxel-induced neuropathic pain assessed as decrease in mechanical allodynia by measuring reduction in pain threshold at 100 mg/kg, ip measured at 0.5 to 1.5 hrs by Von Frey assay relative to control; assay type: functional, organism-based; settings: time 0.5-1.5 hrs
# Rattus norvegicus [4] = test: Analgesic activity in Sprague-Dawley rat model of paclitaxel-induced neuropathic pain assessed as reduction in cold hyperalgesia by measuring increase in paw withdrawal latency at 100 mg/kg, ip measured at 1 to 2 hrs post dosing by Von Frey assay relative to control; assay type: functional, organism-based; settings: time 1-2 hrs
# [5] = Displacement of [3H]-DTG from sigma-2 receptor in guinea pig brain membrane incubated for 1 hr by liquid scintillation counting method; assay type: cell membranes, Cavia porcellus
# [6] = target: T1, Sigma non-opioid intracellular receptor 1 (Homo sapiens, UniProt Q99720); test: Displacement of [3H]-pentazocine from sigma-1 receptor in human Jurkat cell membrane at 100 nM incubated for 2 hr by liquid scintillation counting method relative to control; assay type: cell membranes
# [7] = target: Sigma intracellular receptor 2 (Homo sapiens, UniProt Q5BJF2); test: Displacement of [3H]-DTG from sigma-2 receptor in human Jurkat cell membrane incubated for 1 hr by liquid scintillation counting method; assay type: cell membranes
# [8] = target: T2, Sigma non-opioid intracellular receptor 1 (Cavia porcellus, UniProt Q60492); test: Displacement of [3H]-(+)-pentazocine from sigma-1 receptor in guinea pig brain membranes incubated for 1 hr by liquid scintillation counting method; assay type: cell membranes, Membrane
# [9] = target: T1, Sigma non-opioid intracellular receptor 1; test: Displacement of [3H]-pentazocine from sigma-1 receptor in human Jurkat cell membrane incubated for 2 hr by liquid scintillation counting method; assay type: cell membranes
# [10] = MRT (0 to infinity) in Sprague-Dawley rat plasma at 10 mg/kg, ip after 0.25 to 4 hrs by LC-MS/MS analysis; assay type: ADME, organism-based; settings: time 0.25-4 hrs
# [11] = target: Delta-type opioid receptor (Homo sapiens) (UniProt P41143); test: Displacement of [3H]-Naltrindole from recombinant human full-length delta opiod receptor expressed in human HEK293 cells at 1 uM incubated for 60 mins by scintillation counting method; assay type: cell-based
# [12] = Cmax in Sprague-Dawley rat plasma at 10 mg/kg, ip measured after 0.25 to 4 hrs by LC-MS/MS analysis; assay type: ADME, organism-based; design: route intraperitoneal, time upper 4 hrs, time lower 0.25 hrs, dose 10 mg/kg
# hERG (KCNH2) = hERG (KCNH2) (Homo sapiens, UniProt Q12809); test: Binding affinity to human ERG at 1 uM relative to control; assay type: cell-based; settings: HEK293 cells, read-out: Activity
# [13] = Ratio of drug concentration in brain to plasma in Sprague-Dawley rat at 10 mg/kg, ip by LC-MS/MS analysis; assay type: ADME, organism-based; settings: read-out: BPR
# Rattus norvegicus [14] = test: Antinociceptive activity in formalin-induced Sprague-Dawley rat model of nociceptive pain assessed as decrease in time spent on licking during late phase at 20 to 40 mg/kg, ip administered 30 mins before formalin stimulation and measured at 5 mins interval for 10 to 35 mins; assay type: functional, organism-based; settings: dose 20-40 mg/kg
# [15] = AUC (0 to infinity) in Sprague-Dawley rat plasma at 10 mg/kg, ip after 0.25 to 4 hrs by LC-MS/MS analysis; assay type: ADME, organism-based; design: route intraperitoneal, time 0.25-4 hrs, dose 10 mg/kg
# [16] = target: T2, Sigma non-opioid intracellular receptor 1
# [17] = Tmax in Sprague-Dawley rat plasma at 10 mg/kg, ip measured after 0.25 to 4 hrs by LC-MS/MS analysis; assay type: ADME, organism-based; settings: time 0.25-4 hrs
# [18] = Toxicity in Sprague-Dawley rat assessed as effect on motor coordination at 10 to 20 mg/kg, ip measured at 30 to 120 mins post treatment by rotarod test; assay type: organism-based; settings: in vivo, dose lower 10 mg/kg, time lower 30 min, dose upper 20 mg/kg, time upper 120 min
# [19] = target: Kappa-type opioid receptor (Homo sapiens) (UniProt P41145); test: Displacement of [3H]-Diprenorphine from recombinant human full-length kappa opiod receptor expressed in human HEK293 cells at 1 uM incubated for 60 mins by scintillation counting method; assay type: cell-based
# [20] = target: Sigma non-opioid intracellular receptor 1 (Cavia porcellus) (UniProt Q60492); test: Ratio of Ki for displacement of [3H]-(+)-pentazocine from sigma-1 receptor to Ki for displacement of [3H]-(+)-pentazocine from sigma-1 receptor in guinea pig brain membranes in presence of phenytoin; assay type: cell membranes; settings: Membrane
# [21] = AUC (0 to 4 hrs) in Sprague-Dawley rat plasma at 10 mg/kg, ip after 0.25 to 4 hrs by LC-MS/MS analysis; assay type: ADME, organism-based; design: route intraperitoneal, dose 10 mg/kg, time upper 4 hrs, time lower 0.25 hrs
# [22] = Metabolic stability in human liver microsomes assessed as half-life at 10 uM incubated for 1 hr in presence of NADPH by LC-MS/MS analysis; assay type: ADME, Microsome
# [23] = target: Mu-type opioid receptor (Homo sapiens) (UniProt P35372); test: Displacement of [3H]-Diprenorphine from recombinant human full-length mu opiod receptor expressed in […] cells at 1 uM incubated for 60 mins by scintillation counting method; assay type: cell-based; settings: HEK293
# Rattus norvegicus [24] = test: Antinociceptive activity in formalin-induced Sprague-Dawley rat model of nociceptive pain assessed as decrease in time spent on licking during acute phase at 40 mg/kg, ip administered 30 mins before formalin stimulation and measured at 5 mins interval for 10 mins; assay type: functional, organism-based; settings: time 40.0 min
# [25] = Half life in Sprague-Dawley rat plasma at 10 mg/kg, ip measured after 0.25 to 4 hrs by LC-MS/MS analysis; assay type: ADME, organism-based; settings: time 0.25-4 hrs
# Rattus norvegicus [26] = test: Analgesic activity in Sprague-Dawley rat model of paclitaxel-induced neuropathic pain assessed as decrease in mechanical allodynia by measuring reduction in pain threshold at 20 mg/kg, ip measured at 0.5 to 1.5 hrs by Von Frey assay relative to control; assay type: functional; design: scale not given: the % may be the effect or the level left; settings: time 0.5-1.5 hrs
# Rattus norvegicus [27] = test: Analgesic activity in Sprague-Dawley rat model of paclitaxel-induced neuropathic pain assessed as reduction in cold hyperalgesia by measuring increase in paw withdrawal latency at 20 to 40 mg/kg, ip measured at 1 to 2 hrs post dosing by Von Frey assay relative to control; assay type: functional; design: scale not given: the % may be the effect or the level left; settings: dose 20-40 mg/kg, time 1-2 hrs
# [28] = Intrinsic clearance in human liver microsomes at 10 uM incubated for 1 hr in presence of NADPH by LC-MS/MS analysis; assay type: ADME, Microsome; settings: read-out: CLH
# [29] = Metabolic stability in rat liver microsomes assessed as half-life at 10 uM incubated for 1 hr in presence of NADPH by LC-MS/MS analysis; assay type: ADME, Microsome
# [30] = Intrinsic clearance in rat liver microsomes at 10 uM incubated for 1 hr in presence of NADPH by LC-MS/MS analysis; assay type: ADME, Microsome; settings: read-out: CLH
# Chain of Sigma intracellular receptor 2 (Q5BJF2 whole entry): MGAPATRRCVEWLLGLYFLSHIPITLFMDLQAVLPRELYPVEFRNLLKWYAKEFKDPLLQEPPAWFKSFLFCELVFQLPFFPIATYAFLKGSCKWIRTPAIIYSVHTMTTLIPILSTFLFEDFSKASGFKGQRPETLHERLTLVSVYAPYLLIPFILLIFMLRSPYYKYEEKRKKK
# T1 sequence (Q99720 whole entry): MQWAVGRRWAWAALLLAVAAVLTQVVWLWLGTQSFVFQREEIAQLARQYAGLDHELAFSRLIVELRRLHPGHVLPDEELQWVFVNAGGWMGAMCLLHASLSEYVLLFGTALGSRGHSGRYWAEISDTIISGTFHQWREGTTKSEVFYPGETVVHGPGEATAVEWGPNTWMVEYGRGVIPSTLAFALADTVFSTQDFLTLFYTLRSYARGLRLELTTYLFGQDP
# T2 sequence (Q60492 whole entry): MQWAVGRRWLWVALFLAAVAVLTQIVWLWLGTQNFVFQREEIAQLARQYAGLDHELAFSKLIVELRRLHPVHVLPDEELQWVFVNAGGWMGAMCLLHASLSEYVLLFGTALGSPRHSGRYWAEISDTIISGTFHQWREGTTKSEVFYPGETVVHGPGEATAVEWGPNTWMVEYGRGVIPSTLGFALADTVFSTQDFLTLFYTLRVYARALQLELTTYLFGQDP
# Chain of Sigma non-opioid intracellular receptor 1 (Cavia porcellus) (Q60492 whole entry): as above
# Chain of hERG (KCNH2) (Q12809 whole entry): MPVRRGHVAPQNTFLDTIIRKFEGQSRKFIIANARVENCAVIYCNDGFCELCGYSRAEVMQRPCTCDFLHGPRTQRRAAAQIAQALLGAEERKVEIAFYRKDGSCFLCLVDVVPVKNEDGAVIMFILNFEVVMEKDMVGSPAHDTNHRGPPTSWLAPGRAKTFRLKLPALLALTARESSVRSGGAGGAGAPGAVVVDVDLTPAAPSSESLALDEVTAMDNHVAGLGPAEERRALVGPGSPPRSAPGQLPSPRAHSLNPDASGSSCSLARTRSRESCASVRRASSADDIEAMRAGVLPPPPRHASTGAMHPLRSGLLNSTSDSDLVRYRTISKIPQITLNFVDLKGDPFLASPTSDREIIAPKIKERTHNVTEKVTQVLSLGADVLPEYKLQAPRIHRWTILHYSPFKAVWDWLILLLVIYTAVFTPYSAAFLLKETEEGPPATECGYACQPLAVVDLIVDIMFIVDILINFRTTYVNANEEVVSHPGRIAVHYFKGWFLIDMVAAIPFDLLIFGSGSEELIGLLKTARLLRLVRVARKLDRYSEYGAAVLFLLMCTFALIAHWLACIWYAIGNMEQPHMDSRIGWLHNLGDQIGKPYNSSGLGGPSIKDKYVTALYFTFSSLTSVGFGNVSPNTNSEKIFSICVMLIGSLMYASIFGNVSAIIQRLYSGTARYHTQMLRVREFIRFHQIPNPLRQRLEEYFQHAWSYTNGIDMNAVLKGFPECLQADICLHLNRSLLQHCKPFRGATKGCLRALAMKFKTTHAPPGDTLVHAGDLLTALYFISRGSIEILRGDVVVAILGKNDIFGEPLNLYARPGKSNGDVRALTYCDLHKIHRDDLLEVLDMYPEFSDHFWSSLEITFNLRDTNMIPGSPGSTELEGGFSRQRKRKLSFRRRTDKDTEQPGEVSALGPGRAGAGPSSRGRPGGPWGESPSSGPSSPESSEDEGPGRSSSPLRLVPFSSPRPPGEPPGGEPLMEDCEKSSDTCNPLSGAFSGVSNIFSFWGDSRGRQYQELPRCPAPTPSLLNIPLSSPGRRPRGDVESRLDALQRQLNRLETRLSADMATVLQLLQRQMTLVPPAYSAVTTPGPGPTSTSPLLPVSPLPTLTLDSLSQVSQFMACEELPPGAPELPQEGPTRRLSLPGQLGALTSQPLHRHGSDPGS
# Chain of Kappa-type opioid receptor (Homo sapiens) (P41145 whole entry): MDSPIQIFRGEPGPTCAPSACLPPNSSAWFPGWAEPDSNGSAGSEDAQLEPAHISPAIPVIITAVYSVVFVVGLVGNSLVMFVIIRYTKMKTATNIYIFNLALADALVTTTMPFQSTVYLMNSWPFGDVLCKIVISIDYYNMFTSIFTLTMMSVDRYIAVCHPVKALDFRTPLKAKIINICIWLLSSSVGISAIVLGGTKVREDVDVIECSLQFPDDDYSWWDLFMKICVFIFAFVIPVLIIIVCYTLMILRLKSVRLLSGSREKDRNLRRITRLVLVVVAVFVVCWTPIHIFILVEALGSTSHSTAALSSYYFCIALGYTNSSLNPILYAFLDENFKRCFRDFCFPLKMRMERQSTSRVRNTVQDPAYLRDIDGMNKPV
# Chain of Delta-type opioid receptor (Homo sapiens) (P41143 whole entry): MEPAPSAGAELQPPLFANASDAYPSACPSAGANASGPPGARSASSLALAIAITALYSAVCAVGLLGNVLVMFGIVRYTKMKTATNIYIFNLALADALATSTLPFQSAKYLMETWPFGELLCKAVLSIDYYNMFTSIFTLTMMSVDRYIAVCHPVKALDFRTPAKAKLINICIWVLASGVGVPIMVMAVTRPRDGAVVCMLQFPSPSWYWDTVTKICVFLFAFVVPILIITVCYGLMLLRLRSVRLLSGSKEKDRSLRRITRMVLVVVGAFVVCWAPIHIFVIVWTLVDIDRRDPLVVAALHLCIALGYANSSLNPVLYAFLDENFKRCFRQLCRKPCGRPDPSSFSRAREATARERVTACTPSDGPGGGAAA
# Chain of Mu-type opioid receptor (Homo sapiens) (P35372 whole entry): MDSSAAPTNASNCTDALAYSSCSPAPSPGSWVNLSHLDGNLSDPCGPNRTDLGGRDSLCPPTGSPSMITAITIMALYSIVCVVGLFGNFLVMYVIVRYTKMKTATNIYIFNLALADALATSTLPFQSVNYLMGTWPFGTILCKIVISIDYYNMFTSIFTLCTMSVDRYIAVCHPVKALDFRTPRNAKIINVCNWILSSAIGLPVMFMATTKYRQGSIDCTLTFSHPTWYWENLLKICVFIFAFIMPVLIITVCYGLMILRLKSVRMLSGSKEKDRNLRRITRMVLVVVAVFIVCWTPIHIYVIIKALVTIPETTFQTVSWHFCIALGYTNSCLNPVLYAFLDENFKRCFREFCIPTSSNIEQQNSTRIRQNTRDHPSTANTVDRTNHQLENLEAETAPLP
compound,measurement,setting,value
NCC1(CC(=O)O)CCCCC1 [GABAPENTIN],Activity,Rattus norvegicus [1],Active
same,Activity,[2],Toxic
same,Activity,Rattus norvegicus [3],Active
same,Activity,Rattus norvegicus [4],inactive
CN1CCN(Cc2nc(-c3ccc(C(C)(C)C)cc3)n(C)n2)CC1,Ki,[5],> 1000 nM
Cn1nc(CN2CCCC2)nc1-c1ccc2c(c1)CCC2,Activity,[6],37%
same,Ki,[7],1000 nM
Cn1nc(CN2CCCC2)nc1-c1cccc(Oc2ccccc2)c1,Activity,[6],21%
same,Ki,[7],> 1000 nM
Cn1nc(CN2CCN(CCc3ccccc3)CC2)nc1-c1ccc(C(C)(C)C)cc1,Ki,[5],14 nM
same,Ki,[8],10 nM
same,Ki,[7],17 nM
same,Ki,[9],49 nM
Cn1nc(CN2CCCC2)nc1-c1ccc(C(C)(C)C)cc1,MRT inf,[10],43.8 min
same,Activity,[11],inactive
same,Cmax,[12],932 ng/mL
same,activity at 1 µM,hERG (KCNH2),8.4%
same,Kp,[13],12
same,Ki,[5],474 nM
same,Activity,Rattus norvegicus [14],Active
same,AUC(0-inf),[15],635 ng·h/mL
same,Ki,[16],3.4 nM
same,Tmax,[17],15 min
same,Activity,[18],Non-Toxic
same,Ki,[8],2.7 nM
same,Activity,[19],inactive
same,Ki,[7],> 1000 nM
same,Ratio Ki,[20],0.8
same,AUC(0-t),[21],633 ng·h/mL
same,half-life at 10 µM,[22],120 min
same,Activity,[23],inactive
same,Activity,Rattus norvegicus [24],Active
same,half-life,[25],33.6 min
same,Activity,Rattus norvegicus [26],180%
same,Activity,Rattus norvegicus [27],120%
same,microsomal CLint at 10 µM,[28],5.8 µL/min/mg
same,half-life at 10 µM,[29],9.6 min
same,Ki,[9],7.5 nM
same,microsomal CLint at 10 µM,[30],72 µL/min/mg
Cc1ncc2n1-c1ccc(Cl)cc1C(c1ccccc1F)=NC2 [MIDAZOLAM],half-life at 10 µM,[22],2.6 min
same,microsomal CLint at 10 µM,[28],263 µL/min/mg
same,half-life at 10 µM,[29],2.4 min
same,microsomal CLint at 10 µM,[30],293 µL/min/mg
COc1ccc2c(c1)[C@]13CCCC[C@@H]1[C@H](C2)N(C)CC3 [DEXTROMETHORPHAN],Ki,[16],10 nM
same,Ki,[8],63 nM
same,Ratio Ki,[20],6.3
Cn1nc(CN2CCCC2)nc1-c1cccc(-c2ccccc2)c1,Activity,[6]; filed as antagonist,40%
same,Ki,[7],1000 nM
Cn1nc(CN2CCCC2)nc1-c1ccc(C2CC2)cc1,Activity,[6],30%
same,Ki,[7],1000 nM
Cn1nc(CN2CCCC2)nc1-c1ccc2ccsc2c1,Ki,[7],> 1000 nM
same,Ki,[9],64 nM
Cn1nc(CN2CCCC2)nc1-c1ccc(Cl)c(Cl)c1,half-life at 10 µM,[22],84.7 min
same,microsomal CLint at 10 µM,[28],8.2 µL/min/mg
same,half-life at 10 µM,[29],5.1 min
same,microsomal CLint at 10 µM,[30],135 µL/min/mg
O=C(O)Cc1ccccc1Nc1c(Cl)cccc1Cl [DICLOFENAC],microsomal CLint at 10 µM,[28],189 µL/min/mg
same,microsomal CLint at 10 µM,[30],196 µL/min/mg
CC(C)n1nc(CN2CCCC2)nc1-c1ccc(C(C)(C)C)cc1,Ki,[9],2.2 nM
Cc1cc(OCCN2CCOCC2)nn1-c1ccc2ccccc2c1,Ki,[5],> 1000 nM
same,Ki,[8],3 nM
same,half-life at 10 µM,[22],64.6 min
same,microsomal CLint at 10 µM,[28],10.7 µL/min/mg
same,half-life at 10 µM,[29],3.6 min
same,microsomal CLint at 10 µM,[30],190 µL/min/mg
Cn1nc(CN2CCN(Cc3ccccc3)CC2)nc1-c1ccc(C(C)(C)C)cc1,Ki,[5],39 nM
Cc1ccc(-c2nc(CN3CCCC3)nn2C)cc1C,Activity,[6],28%
same,Ki,[7],> 1000 nM
Cn1nc(CN2CCCC2)nc1-c1cccc(C(C)(C)C)c1,Ki,[7],1000 nM
same,Ki,[9],29 nM
Cn1nc(CN2CCCC2)nc1-c1ccc(C2(C(F)(F)F)CC2)cc1,half-life at 10 µM,[22],172 min
same,microsomal CLint at 10 µM,[28],4 µL/min/mg
same,half-life at 10 µM,[29],3.3 min
same,microsomal CLint at 10 µM,[30],207 µL/min/mg
